Data set [1] in a line: in vivo. As to conditions: Sprague-Dawley, rat, iv, 0.5 mg/kg.
The nature of data set [2]: in vivo. As to conditions: Sprague-Dawley, rat, iv, 0.5 mg/kg. This is another data set of the same source.
Data set [3] is described as follows: in vivo. As to conditions: Sprague-Dawley, rat, po, 2 mg/kg.
The nature of data set [4]: in vitro. As to conditions: rat, liver microsomes. (In general: Liver microsomes are a subcellular fraction often used to study metabolism.)
The nature of data set [5]: in vitro. The note with it: human, liver microsomes.
Data set [6] in a line: physchem. As to conditions: simulated intestinal fluid, pH 6.6.
Data set [7] can be described thus: physchem. As to conditions: simulated gastric fluid, pH 1.7.
The nature of data set [8]: in vitro. The note with it: pig, LLC-PK1.
Data set [9] is described as follows: physchem. As to conditions: simulated intestinal fluid, pH 6.6. The source holds these as a separate data set.
For data set [10] the following is noted: rat, in vivo, iv, 0.5 mg/kg.
The nature of data set [11]: physchem. The note with it: simulated gastric fluid, pH 1.7. This is another data set of the same source.
A short description of data set [12]: Unbound clearance in CD-1 mouse at 1 mg/kg, iv. As to conditions: in vivo. It counts as ADME, organism-based.
A short description of data set [13]: Oral bioavailability in CD-1 mouse at 3 mg/kg. It counts as ADME, organism-based. The note with it: in vivo.
The conditions of data set [14]: mouse, in vivo, po, 60 mg/kg, 6 h.
A short description of data set [15]: in vivo. As to conditions: athymic nude, mouse, plasma, po, 30 mg/kg.
The conditions of data set [16]: mouse, in vivo, po, 30 mg/kg, 6 h.
The nature of data set [17]: in vivo. The note with it: Beagle, dog, iv, 0.5 mg/kg.
A short description of data set [18]: in vivo. As to conditions: Beagle, dog, po, 2 mg/kg.
The conditions of data set [19]: rat, in vivo, iv, 0.5 mg/kg. The source holds these as a separate data set.
A short description of data set [20]: in vivo. As to conditions: athymic nude, mouse, plasma, po, 60 mg/kg.
Data set [21] in a line: Clearance in CD-1 mouse at 1 mg/kg, iv. It counts as ADME, organism-based. The note with it: in vivo.
The conditions of data set [22]: dog, in vivo, iv, 0.5 mg/kg.

Results on 12 compounds are retold here after ChEMBL document CHEMBL4354823, “Discovery and in Vivo Evaluation of Macrocyclic Mcl-1 Inhibitors Featuring an α-Hydroxy Phenylacetic Acid Pharmacophore or Bioisostere” (J Med Chem, 2019).

The structures appear in SMILES notation.

Broadly, the clearance is the volume of plasma or blood freed of the substance per unit of time. A lower clearance goes with a low capacity for elimination. A word on the half-life: it is the time in which the quantity being followed falls by half. One may read the bioavailability as the share of a dose that reaches the circulation, judged against a reference dose that is usually intravenous. Read a high bioavailability as much systemic uptake. In turn, `COC(=O)[C@@]1(O)CC(=O)N(C)CC/C=C/[C@H](OC)[C@@H]2CC[C@H]2CN2C[C@@]3(CCCc4cc(Cl)ccc43)COc3ccc1cc32` gave a clearance in the data set “in vivo [1]” of 43.3 mL/min/kg. Also, in “in vivo [2]”, the half-life was 2.5 h. The bioavailability in the data set “in vivo [3]” turned out to be 2%.
Compound `COC1CN(CCO[C@H]2/C=C/CCN(C)C(=O)C[C@](O)(C(=O)NS(=O)(=O)N(C)C)c3ccc4c(c3)N(C[C@@H]3CC[C@H]32)C[C@@]2(CCCc3cc(Cl)ccc32)CO4)C1` gave a clearance in the data set “in vivo [1]” of 58.3 mL/min/kg. In the data set “in vivo [2]”, this compound gave a half-life of 6.3 h. Moreover, the bioavailability in the data set “in vivo [3]” was 6%.
As usually defined, the microsomal CLint is a measure of how fast metabolising enzymes remove a compound, apart from limits set by blood flow. Read a low microsomal CLint as greater metabolic stability. `CN1CC/C=C/[C@H](OCCN2CC(F)C2)[C@@H]2CC[C@H]2CN2C[C@@]3(CCCc4cc(Cl)ccc43)COc3ccc(cc32)[C@@](O)(C(=O)NS(=O)(=O)N(C)C)CC1=O`: the intrinsic metabolic clearance (microsomal CLint) in the data set “in vitro [4]” and in “in vitro [5]” was below 14 µL/min/mg throughout. Besides, the clearance in the data set “in vivo [1]” is 11.7 mL/min/kg. For the same compound, the half-life in the data set “in vivo [2]” was 4.5 h.
`CN1CC/C=C/[C@H](OCCCN2CC(F)(F)C2)[C@@H]2CC[C@H]2CN2C[C@@]3(CCCc4cc(Cl)ccc43)COc3ccc(cc32)[C@@](O)(C(=O)NS(=O)(=O)N(C)C)CC1=O` showed a clearance in the data set “in vivo [1]” of 3.33 mL/min/kg. Besides, the half-life in “in vivo [2]” is 5.5 h. In “in vivo [3]”, this compound came in with a bioavailability of 52%.
For the compound `CN(C)C(=O)CO[C@H]1/C=C/CCN(C)C(=O)C[C@](O)(C(=O)NS(=O)(=O)N(C)C)c2ccc3c(c2)N(C[C@@H]2CC[C@H]21)C[C@@]1(CCCc2cc(Cl)ccc21)CO3`, the intrinsic clearance (microsomal CLint) in the data set “in vitro [4]” was below 14 µL/min/mg; in “in vitro [5]” it was 19 µL/min/mg. Moreover, the clearance in the data set “in vivo [1]” is 21.7 mL/min/kg. In addition, the half-life in “in vivo [2]” was 3.1 h.
`CN1CC/C=C/[C@H](OCCOCC(F)F)[C@@H]2CC[C@H]2CN2C[C@@]3(CCCc4cc(Cl)ccc43)COc3ccc(cc32)[C@@](O)(C(=O)NS(=O)(=O)N(C)C)CC1=O`: the clearance in the data set “in vivo [1]” is 0.833 mL/min/kg. Also, the half-life in the data set “in vivo [2]” was 6.5 h. In addition, the bioavailability in “in vivo [3]” was determined as 41%.
For the compound `CN1CC/C=C/[C@H](OCCN2CCC(F)(F)CC2)[C@@H]2CC[C@H]2CN2C[C@@]3(CCCc4cc(Cl)ccc43)COc3ccc(cc32)[C@@](O)(C(=O)NS(=O)(=O)N(C)C)CC1=O`, the intrinsic clearance (microsomal CLint) in “in vitro [4]” was below 14 µL/min/mg; in “in vitro [5]” it was 43 µL/min/mg.
On to `CO[C@H]1/C=C/CCN(C)C(=O)C[C@](O)(C(=O)NS(C)(=O)=O)c2ccc3c(c2)N(C[C@@H]2CC[C@H]21)C[C@@]1(CCCc2cc(Cl)ccc21)CO3`, for which the clearance in “in vivo [1]” was 26.7 mL/min/kg. In “in vivo [2]”, the half-life was 2.6 h. The compound further registered a bioavailability in “in vivo [3]” of 8%.
Usually share remaining stands for what is left of the initial amount, in per cent. A lower share remaining goes with more turnover. The Papp is a coefficient for how fast a substance crosses the barrier. A lower Papp goes with slow passage. Turning to `CO[C@H]1/C=C/CCN(C)C(=O)C[C@](O)(C(=O)O)c2ccc3c(c2)N(C[C@@H]2CC[C@H]21)C[C@@]1(CCCc2cc(Cl)ccc21)CO3`, the share remaining at 0.5 h, 1 µM is 100% in the data set “physchem [6]” and 49% in “physchem [11]”. For the same compound, the clearance in the data set “in vivo [1]” was 23.3 to 23.8 mL/min/kg. Also, the fraction remaining at 1 h, 1 µM in the data set “physchem [7]” is 26%; in “physchem [9]”, 100%. Besides, the Papp in the data set “in vitro [8]” was 4.5 ×10⁻⁶ cm/s. The compound further showed a half-life in the data set “in vivo [2]” of 6.8 h. In data set [10], this compound registered a CL of 31%. The compound further came in with a bioavailability in the data set “in vivo [3]” of 0%.
For `CN1CC/C=C/[C@H](OCCN2CCS(=O)(=O)CC2)[C@@H]2CC[C@H]2CN2C[C@@]3(CCCc4cc(Cl)ccc43)COc3ccc(cc32)[C@@](O)(C(=O)NS(=O)(=O)N(C)C)CC1=O`, the intrinsic metabolic clearance (microsomal CLint) in “in vitro [4]” and in “in vitro [5]” was below 14 µL/min/mg throughout. The clearance in “in vivo [1]” is 60 mL/min/kg. In “in vivo [2]”, the half-life is 2.2 h. In “in vivo [3]”, this compound gave a bioavailability of 6%.
As to `CO[C@H]1/C=C/C[C@H](C)[C@@H](C)S(=O)(=O)NC(=O)c2ccc3c(c2)N(C[C@@H]2CC[C@H]21)C[C@@]1(CCCc2cc(Cl)ccc21)CO3` [TAPOTOCLAX], the CL free turned out to be 67 mL/min/kg in [12], 138 mL/min/kg in [19] and 22.3 mL/min/kg in data set [22]. The figures for the bioavailability (in data set [13]; in the data set “in vivo [18]”; in “in vivo [3]”) were 31%, 27% and 34%, respectively. Besides, the share remaining at 0.5 h, 1 µM in “physchem [6]” and in the data set “physchem [11]” was 90% each time. For the same compound, the “Cp(f)” value turned out to be 0.529 µM in data set [14] and 0.368 µM in [16]. The concentration at 6 h was determined as 49.3 µM in “in vivo [15]” and 70.9 µM in the data set “in vivo [20]”. Moreover, the results for the clearance (in the data set “in vivo [17]”; in the data set “in vivo [1]”; in data set [21]) were 0.333 mL/min/kg, 1 mL/min/kg and 0.5 mL/min/kg, respectively. The results for the share remaining at 1 h, 1 µM in the data set “physchem [7]” and in “physchem [9]” were 84% and 81%, respectively. The same compound had a half-life in “in vivo [2]” of 18.2 h.
With `CN1CC/C=C/[C@H](OCCN2CCOCC2)[C@@H]2CC[C@H]2CN2C[C@@]3(CCCc4cc(Cl)ccc43)COc3ccc(cc32)[C@@](O)(C(=O)NS(=O)(=O)N(C)C)CC1=O`, the microsomal CLint in “in vitro [4]” was below 14 µL/min/mg; in the data set “in vitro [5]” it was 21 µL/min/mg. Also, the clearance in the data set “in vivo [1]” was 15 mL/min/kg. Further, the half-life in “in vivo [2]” is 2.8 h. This compound also had a bioavailability in “in vivo [3]” of 9%.
